{
  "source": "patent US4897426A",
  "about": "“Method for blocking calcium channels” (New York University, priority 1989, dated 1990)",
  "key": {"[1]": {"test_system": "low-threshold calcium channels (LTCC)", "assay": "Intracellular recording of low-threshold calcium rebound spike in inferior olivary cells of brain slices (LTCC blockage)", "format": "cell-based, guinea pig"}, "[2]": {"test_system": "LTCC", "assay": "Voltage clamp study of LTCC in I.O. neurons", "format": "cell-based, guinea pig", "settings": "octanol 10^-6 M; depolarization steps of 5 mV from holding potential -80 mV", "excerpt": "Adult Hartley guinea pigs (400-600 g) from Camm Research Institute, Wayne, N.J. were decapitated, after ether anesthesia, using a small animal guillotine. Immediately thereafter, two longitudinal sections were made along the lateral edge of the squamous portion of the occipital bone. The resulting bone slab was cut transversely, and pulled caudalward to expose the cerebellum and brain stem. […] It was then transected longitudinally in a parasagittal plane and fixed to a Vibratome Model G plate (available from Ted Pella, Inc., Tustin, Calif.) in order to obtain thin longitudinal sections. From a single brain stem, six 300-micron slices could be obtained. Following sectioning, the slices were incubated in Ringer's solution for approximately one hour. The bathing medium was kept at room temperature and a mixture of 95% O2 and 5% CO2 was bubbled into the bath during this period. Brain stem slices were removed from the incubation bath after one hour but could be kept in good condition in the bath for periods of time up to 24 hours. […]\nThe results presented in this Example were recorded in I.O. neurons from different parts of the nucleus. […] In these experiments, the ionic current across the membrane was measured after a voltage clamp pulse was applied across the membrane. […]"}, "[3]": {"test_system": "tremor", "assay": "Harmaline-induced tremor, electromyogram of left platysma muscle", "format": "in vivo, Sprague-Dawley rats", "description": "In order to analyze the effects of LTCC-blocking agents in vivo, octanol was administered to rats. Alcohols were diluted with physiological saline and sonicated to ensure mixing to create a concentration of alcohol around the neurons equivalent to 10^-6 M (at most). The alcohol was administered intraperitoneally at a concentration of to 10 mM. […] (Harmaline is available from Sigma Chemical Co., St. Louis, M.) The thus-induced tremor has a periodicity similar to physiological or enhanced physiological tremor.\nTherefore, study of I.O. cells of mammals in which tremor has been induced with harmaline provides an excellent in vivo model for studying tremor response in mammals.\nTremor can be measured by electromyogram conducted according to Buchthal, F., et al., Acta Physio. Scand. 39: 83-104, 1957, incorporated by reference.\nThe electric activity in the left platysma muscle of 278 to 300 g Sprague-Dawley rats (from Taconic Farms, Germantown, N.Y.) was recorded differentially using two teflon-coated stranded silver wires (2 mm of wire exposed) placed in the belly of the muscle. The electromyogram (emg) was recorded throughout the experiment and the data were analyzed at the following times: (1) before administration of any drugs; (2) after intraperitoneal injection of 15 mg/kg harmaline; and (3) after subsequent intraperitoneal injection of 2 cc of 10 mM 1-octanol (99% octanol sonicated in physiological saline) given to create a concentration of 9.3 micrograms/g of rat body weight or 7×10^-5 M in the vicinity of the neuronal cells (if all the alcohol was to be absorbed, and none metabolized). The emg was smoothed and differentiated (to further decrease the background noise) using a Nicolet Explorer Model 4060 digital oscilloscope (from Nicolet Instrument Corp., Madison, Wis.). This instrument was also used to obtain autocorrelograms of 800-ms sections of the emg's. Autocorrelograms were obtained by superimposing 800-ms sections of the emg signals. The emerging patterns (if any) can be used to determine frequency and amplitude characteristics of the emg that may not be readily discernible from the naked emg signal."}, "[4]": {"assay": "Solubility in aqueous media", "format": "physicochemical", "settings": "relative to most effective concentration for blocking LTCC"}, "[5]": {"test_system": "squid axons", "settings": "octanol 10^-4 M; cited from earlier work"}, "[6]": {"test_system": "tremor", "settings": "cited from earlier work"}, "[7]": {"test_system": "bovine platelets", "settings": "cited from earlier work"}, "[8]": {"test_system": "high-threshold calcium conductance (HTCC)", "settings": "10^-4 M butanol; sodium channel blocked by tetrodotoxin"}, "[9]": {"test_system": "rat brain synaptic membrane vesicles", "settings": "10^-1 M; cited from earlier work"}, "[10]": {"test_system": "synaptosomes isolated from rat brains", "settings": "ethanol 2.5×10^-2 -1.5×10^-1 M; cited from earlier work"}, "[11]": {"settings": "read-out: Blood level; one or two drinks of an alcohol-containing beverage; cited from earlier work"}, "[12]": {"settings": "in vivo; cited from earlier work"}, "[13]": {"settings": "complete blockage of LTCC, for hexanol through decanol nominal, 10^-6 M at most (not fully soluble)"}, "[14]": {"settings": "2 cc of 10 mM 1-octanol i.p. after harmaline 15 mg/kg i.p."}, "[15]": {"settings": "harmaline 15 mg/kg i.p., no alcohol"}},
  "note": "Like-named read-outs stand apart in the source and are kept apart here.",
  "data": [
    {"smiles": "CCCCCCCO", "note": "[heptanol]", "values": [
      {"measurement": "Preferred highest molar concentration / operative range for substantial and total blockage of LTCC: From About", "setting": "[1]; [13]", "result": "~10^-6 M"}
    ]},
    {"smiles": "CCCCCCCCO", "note": "[octanol, 1-octanol]", "values": [
      {"measurement": "Blockage of calcium-dependent rebound potentials (LTCC)", "setting": "[1]; 10^-6 M octanol in bath, sodium spike blocked with 10^-6 M tetrodotoxin", "result": "complete blockage of the calcium-dependent rebound potentials"},
      {"measurement": "Blockage of the rebound calcium spike following membrane hyperpolarization", "setting": "[1]; 10^-6 M octanol, hyperpolarizing square current pulse, 10^-6 M tetrodotoxin", "result": "blocked"},
      {"measurement": "Preferred highest molar concentration / operative range for substantial and total blockage of LTCC: From About", "setting": "[1]; [13]", "result": "~10^-6 M"},
      {"measurement": "Blockage of low-threshold calcium ionic current", "setting": "[2]", "result": "completely blocked the ionic conductance"},
      {"measurement": "Baseline muscle activity", "setting": "[3]; [14]", "result": "reduced below control levels"},
      {"measurement": "Dominant frequency of emg", "setting": "[3]; [14]", "result": 10, "unit": "Hz"},
      {"measurement": "Tremor after harmaline and alcohol", "setting": "[3]; [14]", "result": "the tremor stopped"},
      {"measurement": "Solubility in aqueous media", "setting": "[4]", "result": "corresponds closely to the most effective concentration for blocking the LTCC"},
      {"measurement": "Observed intracellular calcium concentration", "setting": "[5]", "result": "apparent increase in the observed intracellular calcium concentration"}
    ]},
    {"smiles": "COc1ccc2c3c([nH]c2c1)C(C)=NCC3", "note": "[harmaline, reference compound]", "values": [
      {"measurement": "Tremor induction", "setting": "[3]; harmaline 15 mg/kg i.p.", "result": "periods of generalized tremor"},
      {"measurement": "Degree of autocorrelation of emg", "setting": "[3]; [15]", "result": "high degree of autocorrelation"},
      {"measurement": "Dominant frequency of tremor", "setting": "[3]; [15]", "result": 7.5, "unit": "Hz"},
      {"measurement": "Induction of tremor in mammals (known)", "setting": "[6]", "result": "known to induce tremor in mammals"}
    ]},
    {"smiles": "CCCCCCO", "note": "[hexanol]", "values": [
      {"measurement": "Preferred highest molar concentration / operative range for substantial and total blockage of LTCC: From About", "setting": "[1]; [13]", "result": "~10^-6 M"},
      {"measurement": "Inhibition of calcium mobilization", "setting": "[7]; 5×10^-3 (unit not given)", "result": "inhibitors of calcium mobilization"}
    ]},
    {"smiles": "CCCCCCCCCCO", "note": "[decanol]", "values": [
      {"measurement": "Preferred highest molar concentration / operative range for substantial and total blockage of LTCC: From About", "setting": "[1]; [13]", "result": "~10^-6 M"}
    ]},
    {"smiles": "CCCCO", "note": "[butanol]", "values": [
      {"measurement": "Inhibition of the LTCC or rebound spike", "setting": "[1]", "result": "inhibition of the LTCC or rebound spike"},
      {"measurement": "Preferred highest molar concentration / operative range for substantial and total blockage of LTCC: To About", "setting": "[1]", "result": "~10^-6"},
      {"measurement": "Effect on the HTCC", "setting": "[8]", "result": "absence of any effect on the HTCC"},
      {"measurement": "Inhibition of calcium mobilization", "setting": "[7]; 5×10^-2 M", "result": "inhibitors of calcium mobilization"}
    ]},
    {"smiles": "CCCCCO", "note": "[pentanol]", "values": [
      {"measurement": "Preferred highest molar concentration / operative range for substantial and total blockage of LTCC: From About", "setting": "[1]; [13]", "result": "~10^-6 M"}
    ]},
    {"smiles": "CCO", "note": "[ethanol]", "values": [
      {"measurement": "Preferred highest molar concentration / operative range for substantial and total blockage of LTCC: From About", "setting": "[1]", "result": "~10^-3"},
      {"measurement": "Preferred highest molar concentration / operative range for substantial and total blockage of LTCC: To About", "setting": "[1]", "result": "~10^-4"},
      {"measurement": "Inhibition of calcium influxes", "setting": "[9]", "result": "inhibited calcium influxes"},
      {"measurement": "Inhibition of voltage-dependent calcium uptake", "setting": "[10]", "result": "inhibited voltage-dependent calcium uptake"},
      {"measurement": "concentration", "setting": "[11]", "result": "~10000", "unit": "µM"},
      {"measurement": "Intoxicating and addictive properties", "setting": "[12]", "result": "well-known"}
    ]},
    {"smiles": "CCCCCCCCCO", "note": "[nonanol]", "values": [
      {"measurement": "Preferred highest molar concentration / operative range for substantial and total blockage of LTCC: From About", "setting": "[1]; [13]", "result": "~10^-6 M"}
    ]}
  ]
}
